Test results reported in patent publication US20230183259A1, “Crystal Form Of Thiofuran Pyridazine Compound, Preparation Method Therefor And Application Thereof” (ZHEJIANG MEDICINE CO., LTD. XINCHANG PHARMACEUTICAL FACTORY, priority 2020, published 2023).

Legend:
[1] = acceleration test (stability); assay type: physicochemical; conditions: 6 months, temperature 40° C.±2° C.; relative humidity 75%±5%
Protocol: Stability tests were performed on the samples of Examples 1, 2, 3, 4 and 5. […] Please refer to the results of the acceleration test (40° C.±2° C., relative humidity 75%±5%) of Table 1 and the results of the long-term stability test (25° C.±2° C., relative humidity 60%±10%) of Table 2.

[2] = long-term stability test; assay type: physicochemical; conditions: 36 months, temperature 25° C. ±2° C.; relative humidity 60%±5%

(S)-2-(4-fluorophenyl)-4-(piperidine-3-aminomethyl)thieno[2,3-d]pyridazine-7-carboxamide hydrochloride [Example 1]
changes in moisture, related substances, optical isomers and contents under storage conditions [1]: no significant changes
changes in moisture, related substances, optical isomers and contents under storage conditions [2]: no significant changes
